Measured values as given in patent US20240043408A1, “CRYSTAL FORM OF FIBROBLAST GROWTH FACTOR RECEPTOR INHIBITOR AND PREPARATION METHOD THEREFOR” (Transthera Sciences (Nanjing), Inc., priority 2020, published 2024).
Where two headings read alike, the source gives them in different places.

Key:
[1] = Stability test of amorphous form and crystal form I at 105° C. and 60° C.; assay type: physicochemical
Procedure: The “destructive impurity” described herein refers to an additional peak in a liquid chromatogram of a sample in a stability test compared with the liquid chromatogram of the sample on day 0.
The bottles were let stand at 105° C. (samples were taken on days 3, 5 and 10) and at 60° C. (samples were taken on days 10, 20 and 30). The taken samples were investigated for changes in appearance, related substances and form.
Proper amounts of amorphous form samples of the compound (I) were placed into weighing bottles. The bottles were let stand at 105° C. (samples were taken on days 3, 5 and 10) and at 60° C. (samples were taken on days 10, 20 and 30). The taken samples were investigated for changes in appearance, related substances.

SNU-16 cells = assay: Cell viability assay (Cell titer-Glo, 72 h); assay type: cell-based; settings: for IC50: SNU-16 gastric cancer cells with FGFR abnormalities, 72 h, Cell titer-Glo, read-out: Inhibitory activity (nM) on SNU-16 cells (IC50)
Procedure: SNU-16 is a gastric cancer cell with FGFR abnormalities.
Instrument: Espire multi-functional microplate reader
SNU-16 cells were seeded in a 96-well plate for adherent culture overnight, and then compounds at different concentrations (12 dose groups, serial 3-fold dilution with DMSO) were added to give final concentrations of 0.17-30000 nM, wherein the final DMSO content was 5%. Negative control wells contained a 5% DMSO medium. The plate was incubated at 37° C., 5% CO2 and 95% humidity for 72 h for later test. 30 μL of Cell titer-Glo reagent was added to each well, and after the plate was incubated at room temperature for 30 min, the final data were read by Espire.

[2] = Stability test of crystal form I under influencing factors (60° C., RH 92.5%, RH 75%, illumination); assay type: physicochemical
Excerpt: Samples were taken on days 0, 4 and 10, and investigated for changes in properties and purity.

[3] = 60° C., Day 10, additional HPLC peaks vs day 0
[4] = Illumination (≥4500±500 Lux), Day 4
[5] = Illumination (≥4500±500 Lux), Day 10

Question: Which results are given for C=CC(=O)N1C[C@@H](Nc2ncc3cc(-c4c(Cl)c(OC)cc(OC)c4Cl)ccc3n2)C[C@H]1CO [Amorphous form, 1-((2S,4S)-4-((6-(2,6-dichloro-3,5-dimethoxyphenyl)quinazolin-2-yl)amino)-2-(hydroxymethyl)pyrrolidin-1-yl)prop-2-en-1-one]?
Answer: Appearance ([1]; 60° C., Day 10): Pale yellow powder; Related substances (%) ([1]; 60° C., Day 10): 0.73%; Destructive impurity (%) [1, 3]: 0.06%; Appearance ([1]; 60° C., Day 20): Pale yellow powder; Related substances (%) ([1]; 60° C., Day 20): 0.72%; Appearance ([1]; 60° C., Day 30): Pale yellow powder; Related substances (%) ([1]; 60° C., Day 30): 0.75%; Appearance ([1]; 105° C., Day 3): Pale yellow powder; Related substances (%) ([1]; 105° C., Day 3): 1.3%; Appearance ([1]; 105° C., Day 5): Pale yellow powder; Related substances (%) ([1]; 105° C., Day 5): 1.6%; Appearance ([1]; 105° C., Day 10): Pale yellow powder; Related substances (%) ([1]; 105° C., Day 10): 2.5%; Appearance ([1]; Day 0): Pale yellow powder; Destructive impurity (%) ([1]; Day 0): None; Related substances (%) ([1]; Day 0): 0.62%; Number of destructive impurities detected (HPLC) ([1]; stored at 60° C. for 30 days): 2; Number of destructive impurities detected (HPLC) ([1]; stored at 105° C. for 10 days): 7; IC50 (SNU-16 cells; Homo sapiens, SNU-16, 72 h): 11 nM

Question: Which results are given for C=CC(=O)N1C[C@@H](Nc2ncc3cc(-c4c(Cl)c(OC)cc(OC)c4Cl)ccc3n2)C[C@H]1CO [Crystal form I, 1-((2S,4S)-4-((6-(2,6-dichloro-3,5-dimethoxyphenyl)quinazolin-2-yl)amino)-2-(hydroxymethyl)pyrrolidin-1-yl)prop-2-en-1-one]?
Answer: Appearance ([1]; 60° C., Day 10): Off-white powder; Form (XRPD) ([1]; 60° C., Day 10): Crystal form I; Related substances (%) ([1]; 60° C., Day 10): 0.64%; Destructive impurity (%) [1, 3]: Undetectable; Appearance ([1]; 60° C., Day 20): Off-white powder; Form (XRPD) ([1]; 60° C., Day 20): Crystal form I; Related substances (%) ([1]; 60° C., Day 20): 0.64%; Destructive impurity (%) ([1]; 60° C., Day 20, additional HPLC peaks vs day 0): Undetectable; Appearance ([1]; 60° C., Day 30): Off-white powder; Form (XRPD) ([1]; 60° C., Day 30): Crystal form I; Related substances (%) ([1]; 60° C., Day 30): 0.68%; Destructive impurity (%) ([1]; 60° C., Day 30, additional HPLC peaks vs day 0): Undetectable; Appearance ([1]; 105° C., Day 3): Off-white powder; Form (XRPD) ([1]; 105° C., Day 3): Crystal form I; Related substances (%) ([1]; 105° C., Day 3): 0.62%; Destructive impurity (%) ([1]; 105° C., Day 3, additional HPLC peaks vs day 0): Undetectable; Appearance ([1]; 105° C., Day 5): Off-white powder; Form (XRPD) ([1]; 105° C., Day 5): Crystal form I; Related substances (%) ([1]; 105° C., Day 5): 0.60%; Destructive impurity (%) ([1]; 105° C., Day 5, additional HPLC peaks vs day 0): Undetectable; Appearance ([1]; 105° C., Day 10): Off-white powder; Form (XRPD) ([1]; 105° C., Day 10): Crystal form I; Related substances (%) ([1]; 105° C., Day 10): 0.63%; Destructive impurity (%) ([1]; 105° C., Day 10, additional HPLC peaks vs day 0): Undetectable; Appearance ([1]; Day 0): Off-white powder; Destructive impurity (%) ([1]; Day 0): None; Form (XRPD) ([1]; Day 0): Crystal form I; Related substances (%) ([1]; Day 0): 0.64%; Change of appearance, related substances and form ([1]; after storage at 105° C. for 10 days and at 60° C. for 30 days): did not change significantly; Appearance ([2]; 60° C., Day 4, open bottle): Off-white powder; Purity % ([2]; 60° C., Day 4, open bottle): 99.6%; Appearance ([2]; 60° C., Day 10, open bottle): Off-white powder; Purity % ([2]; 60° C., Day 10, open bottle): 99.6%; Appearance ([2]; 75% RH, Day 4, open bottle): Off-white powder; Purity % ([2]; 75% RH, Day 4, open bottle): 99.6%; Appearance ([2]; 75% RH, Day 10, open bottle): Off-white powder; Purity % ([2]; 75% RH, Day 10, open bottle): 99.6%; Appearance ([2]; 92.5% RH, Day 4, open bottle): Off-white powder; Purity % ([2]; 92.5% RH, Day 4, open bottle): 99.6%; Appearance ([2]; 92.5% RH, Day 10, open bottle): Off-white powder; Purity % ([2]; 92.5% RH, Day 10, open bottle): 99.6%; Appearance ([2]; Day 0): Off-white powder; Purity % ([2]; Day 0): 99.6%; Appearance [2, 4]: Off-white powder; Purity % [2, 4]: 99.6%; Appearance [2, 5]: Pale yellow powder; Purity % [2, 5]: 99.5%; Change of appearance and purity ([2]; after 10 days in various influencing factor conditions): did not change significantly; Inhibitory activity on SNU-16 cells (in words) (SNU-16 cells; SNU-16 cells with FGFR abnormalities): good inhibitory activity; IC50 (SNU-16 cells): 9.5 nM
